# Reference: patent US20250144067A1, “PERSONALIZED STARVATION THERAPY FOR CANCER” (Faeth Therapeutics, Inc., priority 2021, published 2025)
# Where a name gives a salt, the structure may show the parent alone. Read-outs that look alike come from different tables or passages of the source. Peptide text beside a SMILES is read from it.
# Experiments:
# [1] = test system: NCI-H292 lung cancer cells; assay: FDA drug screening, complete media vs cholesterol-free media without statin (TABLE 1); type: cell-based, human
# [2] = test system: NCI-H292 lung cancer cells; assay: FDA drug screening, complete media vs cholesterol-free media with simvastatin (TABLE 2); type: cell-based, human
# [3] = NCI-H292 cells, cholesterol-free media without statin
# [4] = complete vs cholesterol-free media, greater than 0 enhanced anti-cancer activity, about 0 neutral, below 0 antagonists
# [5] = NCI-H292 cells, FDA drug library screen, cholesterol-free media with simvastatin 0.04 μM
# [6] = NCI-H292 cells, FDA drug library screen, complete media
# [7] = complete media minus cholesterol-free media + simvastatin, >0 enhanced anti-cancer activity, about 0 neutral, <0 antagonist
# [8] = Complete minus Cholesterol-free, >0 enhanced anti-cancer activity, about 0 neutral, <0 antagonist
# [9] = NCI-H292 cells, cholesterol-free media without statin, FDA drug library screen
# [10] = NCI-H292 cells, complete media, FDA drug library screen
# [11] = complete media vs cholesterol-free media + simvastatin (0.04 μM), >0 enhanced anti-cancer activity, about 0 neutral, <0 antagonist
# [12] = Complete minus Cholesterol-free, greater than 0 enhanced anti-cancer activity, about 0 neutral, below 0 antagonists
# [13] = NCI-H292 cells in cholesterol-free media without statin
# [14] = NCI-H292 cells in complete media
# [15] = NCI-H292 cells, cholesterol-free media with simvastatin 0.04 μM, FDA drug library screen (TABLE 2)
# [16] = NCI-H292 cells, complete media, FDA drug library screen (TABLE 2)
# [17] = complete media minus cholesterol-free media + simvastatin (0.04 μM), >0 enhanced anti-cancer activity, about 0 neutral, <0 antagonist
# [18] = complete vs cholesterol-free media, >0 enhanced anti-cancer activity, about 0 neutral, <0 antagonist
# [19] = NCI-H292 cells, FDA library drug in cholesterol-free media with simvastatin 0.04 μM
# [20] = NCI-H292 cells, FDA library drug in complete media
# [21] = Complete minus Cholesterol-free, […]
# [22] = NCI-H292 cells, FDA drug library screen, cholesterol-free media without statin
# [23] = NCI-H292 cells, drug in cholesterol-free media with simvastatin 0.04 μM
# [24] = NCI-H292 cells, drug in complete media
# [25] = complete media vs cholesterol-free media + simvastatin (0.04 μM), […]
# [26] = Complete minus Cholesterol-free, greater than 0 enhanced anti-cancer activity, about 0 neutral, below 0 antagonist
molecule,measurement,setting,value
"NCCCC[C@H](NC(=O)[C@@H]1CCCN1C(=O)[C@@H]1CSSC[C@H](N)C(=O)N[C@@H](Cc2ccccc2)C(=O)N[C@@H](Cc2ccccc2)C(=O)N[C@@H](CCC(N)=O)C(=O)N[C@@H](CC(N)=O)C(=O)N1)C(=O)NCC(N)=O [Felypressin] (HELM PEPTIDE1{C.F.F.Q.N.C.P.K.G.[am]}$PEPTIDE1,PEPTIDE1,1:R3-6:R3$$$V2.0)",Cholesterol-free,[1],0.991
same,Complete,[1],0.8009
same,Difference,[1],−0.19
same,Cholesterol-free media + simvastatin (0.04 μM),[2],1.091
same,Complete Media,[2],0.9792
same,Difference,[2],−0.11
COc1ccnc(C[S+]([O-])c2nc3ccc(OC(F)F)cc3[nH]2)c1OC (stereo not drawn) [Pantoprazole (sodium hydrate)],Cholesterol-free,[1]; [3],1.314
same,Complete,"[1]; NCI-H292 cells, complete media",0.9437
same,Difference,[1]; [4],−0.37
same,Cholesterol-free media + simvastatin (0.04 μM),[2]; [5],1.494
same,Complete Media,[2]; [6],1.718
same,Difference,[2]; [7],0.22
Cc1[nH]cnc1CN1CCc2c(c3ccccc3n2C)C1=O [Alosetron (Hydrochloride)],Difference,[1]; [8],0.05
same,Cholesterol-free,[1]; [9],1.398
same,Complete,[1]; [10],1.45
same,Cholesterol-free media + simvastatin (0.04 μM),[2]; [5],0.9241
same,Complete Media,[2]; [6],0.826
same,Difference,[2]; [11],−0.10
COc1ccc2c(c1)c(CC(=O)O)c(C)n2C(=O)c1ccc(Cl)cc1 [Indomethacin],Difference,[1]; [12],−0.82
same,Cholesterol-free,[1]; [13],1.574
same,Complete,[1]; [14],0.7546
same,Cholesterol-free media + simvastatin (0.04 μM),[2]; [5],1.269
same,Complete Media,[2]; [6],1.474
same,Difference,[2]; [7],0.20
CC1=NN(c2ccc(C)c(C)c2)C(=O)/C1=N\Nc1cccc(-c2cccc(C(=O)O)c2)c1O [Eltrombopag (Olamine)],Difference,[1]; [12],−0.96
same,Cholesterol-free,[1]; [13],1.745
same,Complete,[1]; [14],0.7856
same,Cholesterol-free media + simvastatin (0.04 μM),[2]; [15],1.098
same,Complete Media,[2]; [16],1.058
same,Difference,[2]; [17],−0.04
Nc1c(CC(=O)O)cccc1C(=O)c1ccccc1 [Amfenac (Sodium Hydrate)],Cholesterol-free,[1]; [9],1.155
same,Complete,[1]; [10],1.799
same,Difference,[1]; [18],0.64
same,Cholesterol-free media + simvastatin (0.04 μM),[2]; [15],0.8959
same,Complete Media,[2]; [16],0.8462
same,Difference,[2]; [17],−0.05
Cc1ccc(S(=O)(=O)NC(=O)NN2CC3CCCC3C2)cc1 (stereo not drawn) [Gliclazide],Difference,[1]; [8],0.04
same,Cholesterol-free,[1]; [9],1.079
same,Complete,[1]; [10],1.122
same,Cholesterol-free media + simvastatin (0.04 μM),[2]; [19],1.233
same,Complete Media,[2]; [20],0.9583
same,Difference,[2]; [11],−0.28
C#C[C@]1(O)CC[C@H]2[C@@H]3CCC4=Cc5oncc5C[C@]4(C)[C@H]3CC[C@@]21C [Danazol],Difference,[1]; [8],−0.06
same,Cholesterol-free,[1]; [9],0.8249
same,Complete,[1]; [10],0.7604
same,Cholesterol-free media + simvastatin (0.04 μM),[2]; [5],1.056
same,Complete Media,[2]; [6],0.9458
same,Difference,[2]; [11],−0.11
C[C@H]1C(=O)O[C@@H]2CCN3CC=C(COC(=O)[C@](C)(O)[C@]1(C)O)[C@H]23 [Monocrotaline],Difference,[1]; [21],−0.18
same,Cholesterol-free,[1]; [22],1.01
same,Complete,[1]; [6],0.8289
same,Cholesterol-free media + simvastatin (0.04 μM),[2]; [23],1.209
same,Complete Media,[2]; [24],1.046
same,Difference,[2]; [25],−0.16
Cc1nccn1CCC(C(N)=O)(c1ccccc1)c1ccccc1 [Imidafenacin],Cholesterol-free,[1]; [9],0.8368
same,Complete,[1]; [10],1.001
same,Difference,[1]; [18],0.16
same,Cholesterol-free media + simvastatin (0.04 μM),[2]; [15],1.409
same,Complete Media,[2]; [16],1.383
same,Difference,[2]; [17],−0.03
O=C(/C=C/c1cccc(S(=O)(=O)Nc2ccccc2)c1)NO [Belinostat],Cholesterol-free,[1]; [9],0.07179
same,Complete,[1]; [10],0.1605
same,Difference,[1]; [18],0.09
same,Cholesterol-free media + simvastatin (0.04 μM),[2]; [5],0.2409
same,Complete Media,[2]; [6],0.1471
same,Difference,[2]; [11],−0.09
Nc1cc(N2CCCCC2)nc(N)[n+]1OS(=O)(=O)[O-] [Minoxidil sulfate],Difference,[1]; [8],−0.27
same,Cholesterol-free,[1]; [3],1.329
same,Complete,"[1]; NCI-H292 cells, complete media",1.056
same,Cholesterol-free media + simvastatin (0.04 μM),[2]; [5],1.144
same,Complete Media,[2]; [6],1.047
same,Difference,[2]; [11],−0.10
Thiamine nitrate,Difference,[1]; [8],−0.26
same,Cholesterol-free,[1]; [3],0.9749
same,Complete,"[1]; NCI-H292 cells, complete media",0.7175
same,Cholesterol-free media + simvastatin (0.04 μM),[2]; [23],0.9067
same,Complete Media,[2]; [24],0.7018
same,Difference,[2]; [11],−0.20
O=C1CCC[C@@H]2[C@H]3CCCN4CCC[C@H](CN12)[C@@H]34 [Sophoridine],Cholesterol-free,[1]; [3],1.507
same,Complete,"[1]; NCI-H292 cells, complete media",1.042
same,Difference,"[1]; complete vs cholesterol-free media, […]",−0.46
same,Cholesterol-free media + simvastatin (0.04 μM),[2]; [19],1.337
same,Complete Media,[2]; [20],1.063
same,Difference,[2]; [25],−0.27
COc1ccc(CN2CCN(C(c3ccc(F)cc3)c3ccc(F)cc3)CC2)c(OC)c1OC [Lomerizine dihydrochloride],Difference,[1]; [26],−0.12
same,Cholesterol-free,[1]; [22],1.023
same,Complete,[1]; [6],0.8999
same,Cholesterol-free media + simvastatin (0.04 μM),[2]; [19],1.178
same,Complete Media,[2]; [20],0.8678
same,Difference,[2]; [11],−0.31
c1cnc2cc3c(cc2n1)[C@@H]1CNC[C@H]3C1 [Varenicline],Difference,[1]; [12],−0.54
same,Cholesterol-free,[1]; [13],1.353
same,Complete,[1]; [14],0.8146
same,Cholesterol-free media + simvastatin (0.04 μM),[2]; [19],1.359
same,Complete Media,[2]; [20],1.033
same,Difference,[2]; [11],−0.33
Cc1cccc(C)c1NC(=O)C1CCCCN1C (stereo not drawn) [Mepivacaine],Difference,[1]; [26],−0.09
same,Cholesterol-free,[1]; [22],1.247
same,Complete,[1]; [6],1.156
same,Cholesterol-free media + simvastatin (0.04 μM),[2]; [19],1.558
same,Complete Media,[2]; [20],0.984
same,Difference,[2]; [11],−0.57
CCCCCCCCCCCCCCCC[n+]1ccccc1.[Cl-] [Cetylpyridinium (chloride)],Difference,[1]; [21],−0.03
same,Cholesterol-free,[1]; [9],0.09243
same,Complete,[1]; [10],0.05797
same,Cholesterol-free media + simvastatin (0.04 μM),"[2]; NCI-H292 cells, cholesterol-free media with simvastatin 0.04 μM, […]",0.218
same,Complete Media,"[2]; NCI-H292 cells, complete media, […]",0.2381
same,Difference,"[2]; complete media minus cholesterol-free media + simvastatin, […]",0.02
O=C(O)c1cn(C2CC2)c2cc(N3CCNCC3)c(F)cc2c1=O [Ciprofloxacin],Cholesterol-free,[1]; [3],1.503
same,Complete,"[1]; NCI-H292 cells, complete media",1.066
same,Difference,[1]; [4],−0.44
same,Cholesterol-free media + simvastatin (0.04 μM),"[2]; NCI-H292 cells, cholesterol-free media with simvastatin 0.04 μM, cell growth value in FDA drug screen",0.9642
same,Complete Media,"[2]; NCI-H292 cells, complete media, cell growth value in FDA drug screen",1.043
same,Difference,[2]; [7],0.08
C=CC[N+]1([C@H]2C[C@H]3[C@@H]4CC[C@H]5C[C@H](O)[C@@H](N6CCOCC6)C[C@]5(C)[C@H]4CC[C@]3(C)[C@H]2OC(C)=O)CCCC1.[Br-] [Rocuronium (Bromide)],Cholesterol-free,[1],0.9624
same,Complete,[1],0.9092
same,Difference,[1],−0.05
same,Cholesterol-free media + simvastatin (0.04 μM),[2],0.8493
same,Complete Media,[2],1.097
same,Difference,[2],0.25
COc1cc2nccc(Oc3ccc(NC(=O)NC4CC4)c(Cl)c3)c2cc1C(N)=O [Lenvatinib],Difference,[1]; [26],−0.11
same,Cholesterol-free,[1]; [22],1.182
same,Complete,[1]; [6],1.077
same,Cholesterol-free media + simvastatin (0.04 μM),[2]; [23],1.178
same,Complete Media,[2]; [24],1.01
same,Difference,[2]; [11],−0.17
Guanethidine (sulfate),Cholesterol-free,[1],1.619
same,Complete,[1],1.336
same,Difference,[1],−0.28
same,Cholesterol-free media + simvastatin (0.04 μM),[2],1.914
same,Complete Media,[2],1.674
same,Difference,[2],−0.24
